Columns and labels:
[1] = molecular target: T1, Streptococcus pneumoniae tryptophan-binding protein 31ft (SEQ ID NO: 1) with cpYFP inserted at 263/266, optical sensor 31ft-263/266-cpYFP, SEQ ID NO: 7 (Streptococcus pneumoniae, UniProt A0A0H2UPV6, DELINS312-313[…]); conditions: for response to amino acid (specific detection): specificity, FIG. 7
T1 construct: His-tag; E. coli JM109(DE3), nickel-purified
Description: (§1) 3. The centrifuged supernatant was purified by a self-packed nickel-column affinity chromatography column to obtain the protein, and the protein after nickel-column affinity chromatography was then passed through a self-packed desalting column to obtain the protein dissolved in 100 mM HEPES buffer (pH 7.4).

[2] = molecular target: T2, Streptococcus pneumoniae tryptophan-binding protein 31ft (SEQ ID NO: 1) with cpYFP inserted at 263/265, optical sensor 31ft-263/265-cpYFP, SEQ ID NO: 6 (Streptococcus pneumoniae, UniProt A0A0H2UPV6, DELINS312-312[…]); conditions: for response to amino acid (specific detection): specificity, FIG. 7
T2 construct: His-tag; pCDF, E. coli JM109(DE3), nickel-column purified
Description: as §1

[3] = molecular target: tryptophan optical sensor (Streptococcus pneumoniae tryptophan-binding protein 31ft fusion) (Streptococcus pneumoniae, UniProt A0A0H2UPV6); experiment: Highest response of the tryptophan optical sensor provided in this application; format: biochemical
[4] = system: Streptococcus pneumoniae 31ft-cpYFP optical sensor mutants L84F, F202W, K214F, K214W, Y217F, Y217W, K255F, K255W, T259F, T259W, I283F and I283W; experiment: Fluorescence detection of purified mutated cpYFP optical sensors; format: biochemical; conditions: purified proteins; FIG. 8
Description: The plasmids pCDF-31ft-263/265-cpYFP, pCDF-31ft-263/266-cpYFP, pCDF-31ft-263/267-cpYFP were linearized by PCR with the primers containing the base sequence of the desired mutation site.
Phosphorus was added to the obtained PCR products under the action of PNK, T4 DNA ligase and PEG4000, thereby obtaining mutant plasmids of 15 sites of H13, T71, L84, D93, K105, N117, T130, V170, V192, F202, K214, Y217, K255, T259, 1283, and the sequencing was completed by Jie Li Sequencing Company. An exemplary nucleic acid sequence is set forth in SEQ ID NO:40 (263/266-T259F).

[5] = molecular target: T3, Streptococcus pneumoniae tryptophan-binding protein 31ft (SEQ ID NO: 1) with cpGFP (SEQ ID NO: 3) inserted at 263/268 (Streptococcus pneumoniae, UniProt A0A0H2UPV6, DEL312-315); experiment: Tryptophan response screening, disrupted supernatant, cpGFP 263/268; format: biochemical; conditions: method of Example 2 (1 mM tryptophan)
T3 construct: E. coli disrupted supernatant
Description: (§2) Tryptophan response screening was performed with disrupted supernatants of E. coli expressing the 31ft-cpYFP fusion protein, and the detection signal of the fusion fluorescent protein containing 1 mM tryptophan was divided by the detection signal of the fusion fluorescent protein without tryptophan.
(§3) According to the method in Example 2, cpYFP was replaced with cpGFP to construct a tryptophan green fluorescent protein fluorescent sensor.

[6] = molecular target: T4, Streptococcus pneumoniae tryptophan-binding protein 31ft (SEQ ID NO: 1) with cpGFP (SEQ ID NO: 3) inserted at 263/266 (Streptococcus pneumoniae, UniProt A0A0H2UPV6, DEL312-313); experiment: Tryptophan response screening, disrupted supernatant, cpGFP 263/266; format: biochemical; conditions: method of Example 2 (1 mM tryptophan)
T4 construct: E. coli disrupted supernatant
Description: as §2, §3

[7] = molecular target: T5, Streptococcus pneumoniae tryptophan-binding protein 31ft (SEQ ID NO: 1) with cpYFP inserted at 263/268, SEQ ID NO: 9 (Streptococcus pneumoniae, UniProt A0A0H2UPV6, DELINS312-315[…]); experiment: Tryptophan response screening, disrupted supernatant, cpYFP 263/268; format: biochemical; conditions: 1 mM tryptophan, disrupted supernatant of E. coli
T5 construct: His-tag; E. coli JM109(DE3), disrupted supernatant
Description: as §2

[8] = molecular target: T6, Streptococcus pneumoniae tryptophan-binding protein 31ft with cpYFP inserted at 263/266, mutant T259F, optical sensor 31ft-263/266-cpYFP-T259F, SEQ ID NO: 31 (Streptococcus pneumoniae, UniProt A0A0H2UPV6, DELINS312-313[…]/T307F); experiment: Fluorescence spectra and tryptophan response of purified 31ft-263/266-cpYFP-T259F; format: biochemical
T6 construct: His-tag; E. coli, purified
Description: 6. […] The determination of the absorption spectrum and fluorescence spectrum of the sample is completed by a spectrophotometer and a fluorescence spectrophotometer.
Detection of fluorescence spectra was performed using a fluorescence spectrophotometer after subjecting purified tryptophan optical sensor 31ft-263/266-cpYFP-T259F to 0 mM and 1 mM tryptophan treatments for 10 min, respectively.
Determination of emission spectra: excitation spectra were recorded with an fixed excitation wavelength of 420 nm and 485 nm and an emission range of 470-600 nm and 490-600 nm, read every 5 nm.

[9] = molecular target: T7, Streptococcus pneumoniae tryptophan-binding protein 31ft (SEQ ID NO: 1) with cpGFP (SEQ ID NO: 3) inserted at 263/267 (Streptococcus pneumoniae, UniProt A0A0H2UPV6, DEL312-314); experiment: Tryptophan response screening, disrupted supernatant, cpGFP 263/267; format: biochemical; conditions: method of Example 2 (1 mM tryptophan)
T7 construct: E. coli disrupted supernatant
Description: as §2, §3

[10] = molecular target: T8, Streptococcus pneumoniae tryptophan-binding protein 31ft (SEQ ID NO: 1) with cpYFP inserted at 263/268, optical sensor 31ft-263/268-cpYFP, SEQ ID NO: 9 (Streptococcus pneumoniae, UniProt A0A0H2UPV6, DELINS312-315[…]); experiment: Titration and specificity detection, purified sensor 31ft-263/268-cpYFP; conditions: 420/485 fluorescence ratio, concentration gradient tryptophan
T8 construct: His-tag; E. coli JM109(DE3), nickel-purified
Description: as §1

[11] = molecular target: T9, Streptococcus pneumoniae tryptophan-binding protein 31ft (SEQ ID NO: 1) with cpYFP inserted at 263/266, SEQ ID NO: 7 (Streptococcus pneumoniae, UniProt A0A0H2UPV6, DELINS312-313[…]); experiment: Tryptophan response screening, disrupted supernatant, cpYFP 263/266; format: biochemical; conditions: 1 mM tryptophan, disrupted supernatant of E. coli
T9 construct: His-tag; E. coli JM109(DE3), disrupted supernatant
Description: as §2

HeLa cells = experiment: Dynamic monitoring of tryptophan transmembrane transport in HeLa cells expressing the optical sensor in the cytosol; format: cell-based; conditions: 1 mM tryptophan, 30 min, HBSS
Description: 1. The pCDNA3.1+-based tryptophan optical sensor plasmid was transfected into HeLa by the transfection reagent Lipofectamine2000 (Invitrogen), and cultured in a cell incubator at 37° C., 5% CO2. Fluorescence detection was performed 24-36 h after the exogenous gene was fully expressed.
2. After induction of expression, adherent HeLa cells were washed three times with PBS and placed in HMS solution for fluorescence microscopy and microplate reader assays, respectively.
Add 1 mM tryptophan and continue the assay for 30 minutes.

[12] = molecular target: T10, Streptococcus pneumoniae tryptophan-binding protein 31ft (SEQ ID NO: 1) with cpYFP inserted at 263/267, optical sensor 31ft-263/267-cpYFP, SEQ ID NO: 8 (Streptococcus pneumoniae, UniProt A0A0H2UPV6, DELINS312-314[…]); experiment: Titration and specificity detection, purified sensor 31ft-263/267-cpYFP; conditions: 420/485 fluorescence ratio, concentration gradient tryptophan
T10 construct: His-tag; E. coli JM109(DE3), nickel-purified
Description: as §1

[13] = molecular target: T11, Streptococcus pneumoniae tryptophan-binding protein 31ft (SEQ ID NO: 1) with cpYFP inserted at 263/265, SEQ ID NO: 6 (Streptococcus pneumoniae, UniProt A0A0H2UPV6, DELINS312-312[…]); experiment: Tryptophan response screening, disrupted supernatant, cpYFP 263/265; format: biochemical; conditions: 1 mM tryptophan, disrupted supernatant of E. coli
T11 construct: His-tag; pCDF, E. coli JM109(DE3) disrupted supernatant
Description: as §2

[14] = molecular target: T12, Streptococcus pneumoniae tryptophan-binding protein 31ft (SEQ ID NO: 1) with cpGFP (SEQ ID NO: 3) inserted at 263/265 (Streptococcus pneumoniae, UniProt A0A0H2UPV6, DEL312-312); experiment: Tryptophan response screening, disrupted supernatant, cpGFP 263/265; format: biochemical; conditions: method of Example 2 (1 mM tryptophan)
T12 construct: E. coli disrupted supernatant
Description: as §2, §3

[15] = molecular target: T13, Streptococcus pneumoniae tryptophan-binding protein 31ft (SEQ ID NO: 1) with cpYFP inserted at 263/267, SEQ ID NO: 8 (Streptococcus pneumoniae, UniProt A0A0H2UPV6, DELINS312-314[…]); experiment: Tryptophan response screening, disrupted supernatant, cpYFP 263/267; format: biochemical; conditions: 1 mM tryptophan, disrupted supernatant of E. coli
T13 construct: His-tag; E. coli JM109(DE3), disrupted supernatant
Description: as §2

[16] = 420/485 fluorescence ratio, concentration gradient tryptophan

Compound	response to amino acid (specific detection) [1] [times]	response to amino acid (specific detection) [2] [times]	highest response to tryptophan, increase of the control [3]	response to tryptophan [4]	response to tryptophan [5]	response to tryptophan [6]	response to tryptophan (signal with / without tryptophan) [7]	decrease in fluorescence intensity under excitation at 460 nm, compared to 0 mM tryptophan ([8]; 1 mM tryptophan, 10 min) [fold]	fluorescence intensity excited at 420 nm, relative to 0 mM tryptophan ([8]; 1 mM tryptophan, 10 min) [times]	response to tryptophan ([8]; purified protein)	response to tryptophan [9]	change amplitude [10] [times]	change amplitude [1, 16] [times]	change amplitude [2, 16] [times]	response to tryptophan (signal with / without tryptophan) [11]	highest 485/420 ratio relative to the initial value (HeLa cells) [times]	change amplitude [12] [times]	response to tryptophan (signal with / without tryptophan) [13]	response to tryptophan [14]	response to tryptophan (signal with / without tryptophan) [15]
N[C@@H](Cc1ccccc1)C(=O)O [phenylalanine]	1.34	1.37																		
N[C@@H](Cc1c[nH]c2ccccc12)C(=O)O [tryptophan, L-tryptophan]			more than 9 fold	more than 2.5 times	more than 1.5 times	more than 1.5 times	more than 1.5 times	0.26	1.1	more than 2.5 fold	more than 1.5 times	3.0	5.3	4.2	more than 1.5 times	1.3	3.3	more than 1.5 times	more than 1.5 times	more than 1.5 times
N[C@@H](Cc1ccc(O)cc1)C(=O)O [tyrosine]	1.26	1.25																		

Source: patent US12724034B2, “Tryptophan optical probe, preparation method therefor and use thereof” (priority 2020, dated 2026)
